Key:
HCT116 cells = experiment: Inhibition of KRas-mediated phosphorylation of ERK (Cisbio HTRF pERK), HCT116 cells; format: cell-based; settings: Homo sapiens; for IC50: HCT-116, 3 h, 3 hr compound incubation; for inhibition at 0.1 µM: HCT-116, single point at 100 nM, 3 hrs compound incubation
PSN1 cells = experiment: Inhibition of KRas-mediated phosphorylation of ERK (Cisbio HTRF pERK), PSN1 cells; format: cell-based; settings: Homo sapiens, PSN1, 3 h
How it was run: (§1)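 Day 1: 6,000 cells/well plated, RPMI + 10% FBS.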

H358 cells = experiment: Inhibition of KRas-mediated phosphorylation of ERK (Cisbio HTRF pERK), H358 cells; format: cell-based; settings: Homo sapiens; for IC50: NCI-H358, 3 h, 3 hr compound incubation; for inhibition at 0.1 µM: NCI-H358, single point at 100 nM, 3 hrs compound incubation
A549 cells = experiment: Inhibition of KRas-mediated phosphorylation of ERK (Cisbio HTRF pERK), A549 cells; format: cell-based; settings: Homo sapiens; for IC50: A549, 3 h, 3 hr compound incubation; for inhibition at 0.1 µM: single point at 100 nM, 3 hrs compound incubation
H460 cells = experiment: Inhibition of KRas-mediated phosphorylation of ERK (Cisbio HTRF pERK), H460 cells; format: cell-based; settings: Homo sapiens; for IC50: NCI-H460, 3 h, 3 hr compound incubation; for inhibition at 0.1 µM: NCI-H460, single point at 100 nM, 3 hrs compound incubation
H727 cells = experiment: Inhibition of KRas-mediated phosphorylation of ERK (Cisbio HTRF pERK), H727 cells; format: cell-based; settings: Homo sapiens; for IC50: NCI-H727, 3 h, 3 hr compound incubation; for inhibition at 0.1 µM: NCI-H727, single point at 100 nM, 3 hrs compound incubation
ASPC1 cells = experiment: Inhibition of KRas-mediated phosphorylation of ERK (Cisbio HTRF pERK), ASPC1 cells; format: cell-based; settings: Homo sapiens, AsPC-1 cells; for IC50: ASPC1, 3 h, 3 hr compound incubation; for inhibition at 0.1 µM: ASPC1, single point at 100 nM, 3 hrs compound incubation
KRas G12R = KRas G12R (Homo sapiens, UniProt P01116, G12R); experiment: biochemical; settings: Binding to KRas (IC50 nM) G12R, TR-FRET displacement, KRas G12R
Sequence of KRas G12R (P01116 1-169 isoform P01116-2 G12R): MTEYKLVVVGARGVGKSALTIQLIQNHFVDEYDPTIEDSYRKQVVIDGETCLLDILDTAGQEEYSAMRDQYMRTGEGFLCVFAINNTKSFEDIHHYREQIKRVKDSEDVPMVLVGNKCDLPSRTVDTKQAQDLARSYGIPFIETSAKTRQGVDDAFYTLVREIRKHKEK

MKN1 cells = experiment: Inhibition of KRas-mediated phosphorylation of ERK (Cisbio HTRF pERK), MKN1 cells; format: cell-based; settings: Homo sapiens
How it was run: as §1

KRas G12V = KRas G12V (Homo sapiens, UniProt P01116, G12V); experiment: biochemical; settings: Binding to KRas (IC50 nM) G12V, TR-FRET displacement, KRas G12V
Sequence of KRas G12V (P01116 1-169 isoform P01116-2 G12V): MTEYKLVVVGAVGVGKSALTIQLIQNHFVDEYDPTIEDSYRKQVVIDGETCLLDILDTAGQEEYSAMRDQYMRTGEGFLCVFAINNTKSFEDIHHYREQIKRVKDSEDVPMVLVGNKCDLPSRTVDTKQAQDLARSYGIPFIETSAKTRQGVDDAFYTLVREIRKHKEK

KRas G12D = KRas G12D (Homo sapiens, UniProt P01116, G12D); experiment: biochemical; settings: Binding to KRas (IC50 nM) G12D, TR-FRET displacement, KRas G12D
Sequence of KRas G12D (P01116 1-169 isoform P01116-2 G12D): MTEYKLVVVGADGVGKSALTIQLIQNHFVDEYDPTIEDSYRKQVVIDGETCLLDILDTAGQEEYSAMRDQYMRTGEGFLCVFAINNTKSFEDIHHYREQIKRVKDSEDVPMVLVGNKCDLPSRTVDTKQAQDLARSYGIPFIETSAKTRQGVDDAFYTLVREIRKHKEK

[1] = 3 hour compound incubation, Cisbio pERK HTRF
[2] = MKN-1, 3 hour compound incubation, Cisbio pERK HTRF
[3] = MKN-1, 3 hr compound incubation

| Structure (SMILES) | IC50 (PSN1 cells; [1]) [nM] | IC50 (H727 cells; Cisbio pERK HTRF) [nM] | IC50 (ASPC1 cells; Cisbio pERK HTRF) [nM] | IC50 (KRas G12R) [nM] | IC50 (MKN1 cells; [2]) [nM] | IC50 (KRas G12V) [nM] | IC50 (KRas G12D) [nM] | IC50 (HCT116 cells) [nM] | IC50 (PSN1 cells; 3 hr compound incubation) [nM] | IC50 (H358 cells) [nM] | IC50 (A549 cells) [nM] | IC50 (H460 cells) [nM] | IC50 (H727 cells) [nM] | IC50 (ASPC1 cells) [nM] | IC50 (MKN1 cells; [3]) [nM] | inhibition at 0.1 µM (HCT116 cells) [%] | inhibition at 0.1 µM (H358 cells) [%] | inhibition at 0.1 µM (A549 cells) [%] | inhibition at 0.1 µM (H460 cells) [%] | other results |
| --- | --- | --- | --- | --- | --- | --- | --- | --- | --- | --- | --- | --- | --- | --- | --- | --- | --- | --- | --- | --- |
| CCc1c(F)ccc2cc(O)cc(N3CCc4c(nc(OC[C@@]56CCCN5C[C@H](F)C6)nc4N4CCCCn5nc(C(=O)N(C)C)c(Br)c5C4)C3)c12 [Example 507, 3-bromo-5-(7-(8-ethyl-7-fluoro-3-hydroxynaphthalen-1-yl)-2-(((2R,7aS)-2-fluorotetrahydro-1H-pyrrolizin-7a(5H)-yl)methoxy)-5,6,7,8-tetrahydropyrido[3,4-d]pyrimidin-4-yl)-N,N-dimethyl-4,5,6,7,8,9-hexahydropyrazolo[1,5-a][1,4] diazocine-2-carboxamide] | 1320 | 4 | 10 | < 2 | 5.5 | < 2 | < 2 | – | – | – | – | – | – | – | – | 51 | 101 | 76 | 84 | IC50 (HCT116 cells; Cisbio pERK HTRF): 39 nM; IC50 (H358 cells; Cisbio pERK HTRF): 1 nM; IC50 (A549 cells; Cisbio pERK HTRF): 6 nM; IC50 (H460 cells; Cisbio pERK HTRF): 13 nM; inhibition at 0.1 µM (H727 cells): 79%; inhibition at 0.1 µM (ASPC1 cells): 96% |
| CCc1c(F)ccc2cc(O)cc(N3CCc4c(nc(OC[C@@]56CCCN5C[C@H](F)C6)nc4N4CCCn5ncc(Cl)c5C4)C3)c12 [Example 642, 4-(4-(3-chloro-7,8-dihydro-4H-pyrazolo[1,5-a][1,4]diazepin-5(6H)-yl)-2-(((2R,7aS)-2-fluorotetrahydro-1H-pyrrolizin-7a(5H)-yl)methoxy)-5,8-dihydropyrido[3,4-d]pyrimidin-7(6H)-yl)-5-ethyl-6-fluoronaphthalen-2-ol] | – | – | – | 3 | – | < 2 | < 2 | 738 | > 10000 | 105 | 145 | 325 | 200 | 59 | 120 | – | – | – | – | – |
| CCc1c(F)ccc2cc(O)cc(N3CCc4c(nc(OC[C@@]56CCCN5C[C@H](F)C6)nc4N4CCCn5nc(C(=O)N6CCC7(CCN7)C6)cc5C4)C3)c12 (stereo partly drawn) [Example 278, (5-(7-(8-ethyl-7-fluoro-3-hydroxynaphthalen-1-yl)-2-(((2R,7aS)-2-fluorohexahydro-1H-pyrrolizin-7a-yl)methoxy)-5,6,7,8-tetrahydropyrido[3,4-d]pyrimidin-4-yl)-5,6,7,8-tetrahydro-4H-pyrazolo[1,5-a][1,4]diazepin-2-yl)(1,6-diazaspiro[3.4]octan-6-yl)methanone] | > 10000 | 659 | 68 | < 2 | 156 | < 2 | < 2 | – | – | – | – | – | – | – | – | -6 | 12 | 22 | -10 | – |
| CCc1c(F)ccc2cc(O)cc(N3CCc4c(nc(OC[C@@]56CCCN5C[C@H](F)C6)nc4N4CCCn5nc(C(=O)N6C[C@H]7CO[C@H](C7)C6)cc5C4)C3)c12 [Example 619, ((1S,5R)-6-oxa-3-azabicyclo[3.2.1]octan-3-yl)(5-(7-(8-ethyl-7-fluoro-^3-hydroxynaphthalen-1-yl)-2-(((2R,7aS)-2-fluorotetrahydro-1H-pyrrolizin-7a(5H)-yl)methoxy)-5,6,7,8-tetrahydropyrido[3,4-d]pyrimidin-4-yl)-5,6,7,8-tetrahydro-4H-pyrazolo[1,5-a][1,4]diazepin-2-yl)methanone] | – | – | – | < 2 | – | < 2 | < 2 | 69 | 1420 | 1 | 10 | 34 | 7 | 5 | 1.9 | – | – | – | – | – |
| CCc1c(F)ccc2cc(O)cc(N3CCc4c(nc(OC[C@@]56CCCN5C[C@H](F)C6)nc4N4CCCn5nc(C(=O)N6CC[C@H]7C[C@H]76)cc5C4)C3)c12 [Example 614, ((1R,5S)-2-azabicyclo[3.1.0]hexan-2-yl)(5-(7-(8-ethyl-7-fluoro-3-hydroxynaphthalen-1-yl)-2-(((2R,7aS)-2-fluorotetrahydro-1H-pyrrolizin-7a(5H)-yl)methoxy)-5,6,7,8-tetrahydropyrido[3,4-d]pyrimidin-4-yl)-5,6,7,8-tetrahydro-4H-pyrazolo[1,5-a][1,4]diazepin-2-yl)methanone] | – | – | – | < 2 | – | < 2 | < 2 | 123 | 4070 | 4 | 3 | 40 | 10 | 4 | 5.5 | – | – | – | – | – |

Further lines, with some results ahead:

| IC50 (PSN1 cells; [1]) [nM] | IC50 (H727 cells; Cisbio pERK HTRF) [nM] | IC50 (ASPC1 cells; Cisbio pERK HTRF) [nM] | IC50 (KRas G12R) [nM] | IC50 (MKN1 cells; [2]) [nM] | IC50 (KRas G12V) [nM] | IC50 (KRas G12D) [nM] | IC50 (HCT116 cells) [nM] | IC50 (PSN1 cells; 3 hr compound incubation) [nM] | IC50 (H358 cells) [nM] | IC50 (A549 cells) [nM] | IC50 (H460 cells) [nM] | IC50 (H727 cells) [nM] | IC50 (ASPC1 cells) [nM] | IC50 (MKN1 cells; [3]) [nM] | Structure (SMILES) | inhibition at 0.1 µM (HCT116 cells) [%] | inhibition at 0.1 µM (H358 cells) [%] | inhibition at 0.1 µM (A549 cells) [%] | inhibition at 0.1 µM (H460 cells) [%] | other results |
| --- | --- | --- | --- | --- | --- | --- | --- | --- | --- | --- | --- | --- | --- | --- | --- | --- | --- | --- | --- | --- |
| – | – | – | 4 | – | 7 | 17 | 570 | > 10000 | 710 | 1130 | 184 | 2330 | 1940 | 101 | CCc1c(F)ccc2cc(O)cc(N3CCc4c(nc(OC[C@@]56CCCN5C[C@H](F)C6)nc4N4CCCN(c5nccs5)CC4)C3)c12 [Example 648, 5-ethyl-6-fluoro-4-(2-(((2R,7aS)-2-fluorotetrahydro-1H-pyrrolizin-7a(5H)-yl)methoxy)-4-(4-(thiazol-2-yl)-1,4-diazepan-1-yl)-5,8-dihydropyrido[3,4-d]pyrimidin-7(6H)-yl)naphthalen-2-ol] | – | – | – | – | – |
| – | – | – | < 2 | – | < 2 | < 2 | 312 | 4880 | 30 | 266 | 67 | 211 | 27 | 39.9 | CCc1c(F)ccc2cc(O)cc(N3CCc4c(nc(OC[C@@]56CCCN5C[C@H](F)C6)nc4N4CCCC5(CCS(=O)(=O)N5)C4)C3)c12 (stereo partly drawn) [Example 643, 7-(7-(8-ethyl-7-fluoro-3-hydroxynaphthalen-1-yl)-2-(((2R,7aS)-2-fluorotetrahydro-1H-pyrrolizin-7a(5H)-yl)methoxy)-5,6,7,8-tetrahydropyrido[3,4-d]pyrimidin-4-yl)-2-thia-1,7-diazaspiro[4.5]decane 2,2-dioxide] | – | – | – | – | – |
| 276 | 85 | 30 | 2 | 12.6 | < 2 | < 2 | – | – | – | – | – | – | – | – | Cc1c(F)ccc2cc(O)cc(N3CCc4c(nc(OC[C@@]56CCCN5C[C@H](F)C6)nc4N4CCCC5(CNS(=O)(=O)N5)C4)C3)c12 (stereo partly drawn) [Example 512, 7-(7-(7-fluoro-3-hydroxy-8-methylnaphthalen-1-yl)-2-(((2R,7aS)-2-fluorohexahydro-1H-pyrrolizin-7a-yl)methoxy)-5,6,7,8-tetrahydropyrido[3,4-d]pyrimidin-4-yl)-2-thia-1,3,7-triazaspiro[4.5]decane 2,2-dioxide] | 56 | 92 | 71 | 79 | inhibition at 0.1 µM (H727 cells): 42%; inhibition at 0.1 µM (ASPC1 cells): 74% |
| 605 | 6290 | 4980 | 7 | 1120 | 25 | 33 | – | – | – | – | – | – | – | – | CCc1c(F)ccc2cc(O)cc(N3CCc4c(nc(OCC5(CN(C)C)CC5)nc4N4CCCC(n5ccc(C)n5)C4)C3)c12 (centres unmarked) [Example 600, 4-(2-((1-((dimethylamino)methyl)cyclopropyl)methoxy)-4-(3-(3-methyl-1H-pyrazol-1-yl)piperidin-1-yl)-5,8-dihydropyrido[3,4-d]pyrimidin-7(6H)-yl)-5-ethyl-6-fluoronaphthalen-2-ol] | – | – | – | – | IC50 (HCT116 cells; Cisbio pERK HTRF): 3290 nM; IC50 (H358 cells; Cisbio pERK HTRF): 808 nM; IC50 (A549 cells; Cisbio pERK HTRF): > 10000 nM; IC50 (H460 cells; Cisbio pERK HTRF): 1210 nM |

Source: US20250368649A1, “TETRAHYDROPYRIDOPYRIMIDINE PAN-KRAS INHIBITORS” (Mirati Therapeutics, Inc., priority 2022, published 2025)
